Data taken from patent US10285986B2, “Compounds and anti-tumor NQO1 substrates” (The Board of Trustees of the University of Illinois, priority 2011, dated 2019).
Values after ≈ are worked out from the molar mass of the structure shown. Values joined by “and” are separate entries in the source; they are usually repeats but may differ in a detail not shown here. Identical values can stand only once. Like-named read-outs stand apart in the source and are kept apart here.

Experiments:
MCF-7 cells = test: Cytotoxicity to MCF-7 cells with or without 25 μM dicoumarol (sulforhodamine B assay); type: cell-based, human; details: for IC50: Homo sapiens; for Fold Protection of MCF7 cells w/ 25 μM dicoumarol: Table 1
Experimental: The NQO1-dependent cytotoxicity of the first set of derivatives was determined in MCF-7 cells which express high levels of NQO1. Cells were exposed to DNQ for 2 hours in the presence or absence of 25 μM DIC. The media was then removed and cells were washed once with media then fresh media was added and the cells were incubated for 72 hours. Cell death was assessed using the sulforhodamine B assay previously described. […] Substitution off the nitrogen appeared well tolerated (4-14 and 4-15).
The DNQ derivatives synthesized were assayed for their toxicity to MCF-7 cells with or without DIC. The data from these experiments is organized in Table 4.2. […] This tolerance of sterically-demanding substituents corresponds with a flexible and promiscuous NQO1 active site. The poor activity of hydroxyl derivative 4-41 may be a result of either poor binding with the largely hydrophobic NQO1 active site or with an excessively strong substrate-enzyme interaction because of hydrogen bonding.

NQO1 = NQO1 (Homo sapiens, UniProt P15559); test: NQO1 enzymatic measurements in vitro; type: biochemical; details: 1 μM substrate
Chain of NQO1 (P15559 whole entry): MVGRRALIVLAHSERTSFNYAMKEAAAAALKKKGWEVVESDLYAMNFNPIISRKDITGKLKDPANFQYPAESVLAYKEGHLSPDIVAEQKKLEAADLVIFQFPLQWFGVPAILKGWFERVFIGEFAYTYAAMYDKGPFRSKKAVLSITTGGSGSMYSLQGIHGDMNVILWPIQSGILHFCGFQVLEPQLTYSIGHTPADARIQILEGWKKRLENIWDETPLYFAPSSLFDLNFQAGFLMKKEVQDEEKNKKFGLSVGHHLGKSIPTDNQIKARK
Experimental: As further evidence that the activity of these DNQ derivatives is dependent on their ability to be reduced by NQO1, full enzymatic measurements in vitro were performed. We found a strong correlation between catalytic efficiency of substrates in vitro and their cell culture toxicity. […] This provides strong evidence that the cytotoxicity of DNQ and its derivatives are dependent primarily upon the activity of NQO1 within the cell.

[1] = Aqueous solubility in pH 7.4 PBS by LC-MS; type: physicochemical; details: phosphate buffered saline, pH 7.4, aqueous buffer, thermodynamic from solid, PBS pH 7.4; Table 4.3
Experimental: The aqueous solubility of DNQ at pH 7.4 in phosphate buffered saline (PBS) was measured by LC-MS. DNQ was sonicated for 30 minutes in PBS then undissolved solid was removed by filtration through a 0.45 μm syringe filter and the filtrate was analyzed by LC-MS (λ=275 nm, ESI-TOF in negative mode). The optimal sonication time was determined by sonicating DNQ for 1, 5, 10, and 30 minutes. While the concentration of DNQ in solution increased substantially between 1, 5, and 10 minutes, there was only a minor difference between 10 and 30 minutes. During the 30 minute sonication the water bath warmed to 45° C. (samples were cooled to room temperature before filtration). A calibration curve was generated from 1-100 μM by dissolving DNQ in methanol to a concentration of 500 μM and making dilutions of this stock in 80:20 water:methanol. The calibration curve (measure by UV absorbance) was linear over this range; 1 μM was approximately the limit of detection. […] The solution was very pale yellow.
The aqueous solubility of the compounds was determined by an LC-MS assay as described in the specification above. We applied the calibration curve generated for DNQ to the derivatives under the assumption that the UV profile of the derivatives of DNQ would be similar to that of DNQ.
After sonication and filtration most of the aqueous solutions were colorless. The solutions of DNQ, 4-31, and 4-37 were faintly yellow while 4-8, 4-14 and 4-41 were substantially more colored. The solution of 4-8, 4-14 and 4-41 were diluted 10-fold with PBS prior to LC-MS analysis to ensure that the concentrations fell within the range of the calibration curve.

[2] = Solubility in 20% HPβCD solution (pH modulation protocol); type: physicochemical; details: 20% HPβCD in pH 7.4 PBS, pH 7.4, aqueous with cosolvent or surfactant or cyclodextrin, thermodynamic from solid; 20% HPβCD; Table 4.3
Experimental: The protocol for formulating DNQ compounds in HPβCD is as follows: the DNQ compound is slurried in a 20% solution of HPβCD in pH 7.4 PBS and the pH is then increased by the addition of 10 M NaOH to induce dissolution of the DNQ compound. The pH is returned to pH 7.5-8.0 by the careful addition of 1 M HCl. A 3.3 mM solution of the DNQ compound can be made by this method which is stable at least 24 hours. This represents a 30-fold increase in solubility of DNQ over PBS alone.
Although we were pleased to find active derivatives of DNQ that were up to 4-fold more soluble in water—sufficiently soluble for continuous IV infusion for human administration—this level of solubility was insufficient for animal studies by bolus injection. […] We used the same pH modulation protocol outlined for DNQ described in the specification above. The results are organized in Table 4.3 and FIG. 8. While all compounds were more soluble in HPβCD than in buffer alone, the fold increase in solubility varied widely.

[3] = Solubility in organic solvents; type: physicochemical; details: for solubility: organic solvent or mixture, thermodynamic from solid
Experimental: The solubility of DNQ derivatives in organic solvents was determined by measuring the amount of a given solvent required to dissolve a known amount of compound. Solvent was added to the compound in 50 μL aliquots and the slurry was sonicated. […] Solubility was assessed in DMSO, dichloromethane, and 33% methanol in dichloromethane (FIGS. 9, 10, and 11, respectively).

[4] = Maximum tolerated dose in mice; details: mouse, in vivo, ip
From the text: Because of the difficulty of repeated tail vein injections in mice, our group is using IP administration of compound.
All of these derivatives are currently being assessed for their maximum tolerated dose (MTD) in healthy mice. Compounds are formulated in HPβCD and delivered by IP injection to two mice once daily for five days.

[5] = Solubility in organic solvents; type: physicochemical; details: organic solvent or mixture, thermodynamic from solid; THF; Table 1
[6] = MCF7, Table 1, read-out: MCF7 IC50
[7] = MCF7, classification in figure legends of FIGS. 7-11, read-out: IC50 ("active" / generally "inactive" compounds)
[8] = 2:1 CH2Cl2:MeOH, Table 4.3, read-out: Solubility in 2:1 CH2Cl2:MeOH
[9] = CH2Cl2:MeOH 2:1, Table 1, read-out: CH2Cl2:MeOH 2:1 solubility
[10] = CH2Cl2, Table 1, read-out: CH2Cl2 solubility
[11] = DMSO, Table 1, read-out: DMSO solubility
[12] = MCF7, Table 4.2, no DIC, ± s.e., read-out: IC50 vs. MCF-7 cells
[13] = MCF7, read-out: IC50 vs. MCF-7 cells +25 μM DIC, Table 4.2, +25 μM DIC, ± s.e.
[14] = CH2Cl2, Table 4.3, read-out: Solubility in CH2Cl2
[15] = DMSO, Table 4.3, read-out: Solubility in DMSO

solubility at 30 min [1] | solubility [2] | solubility [3, 8] | solubility [3, 14] | solubility [3, 15] | SMILES | IC50 (MCF-7 cells; [6]) | IC50 (MCF-7 cells; [7]) | Fold Protection of MCF7 cells w/ 25 μM dicoumarol (MCF-7 cells) | NQO1 Initial Velocity @ 1 μM (NQO1) | Solubility in CH2Cl2 ([3]; CH2Cl2, Table 4.3) | Solubility in DMSO ([3]; DMSO, Table 4.3) | solubility [3, 9] | solubility [3, 10] | solubility [3, 11] | MTD at 5 days [4] | solubility [5] | IC50 (MCF-7 cells; [12]) | IC50 (MCF-7 cells; [13]) | Fold protection by DIC (MCF-7 cells; Table 4.2) | other results
0.017 mM (≈ 5.55 µg/mL) | 4 mM (≈ 1310 µg/mL) | 30 mM (≈ 9790 µg/mL) | – | – | CCCCn1c2c(c(C)cc1=O)C(=O)c1c(C)cc(=O)[nH]c1C2=O [Compound 4-22] | 270 nM | < 500 nM | 5.5 | 2100 ± 300 | 7.6 mM (≈ 2480 µg/mL) | 10 mM (≈ 3260 µg/mL) | 30 mM (≈ 9790 µg/mL) | 7.6 mM (≈ 2480 µg/mL) | 10 mM (≈ 3260 µg/mL) | – | 6.1 mM (≈ 1990 µg/mL) | 270 ± 40 nM | 1500 ± 400 nM | 5.5 | –
0.114 mM (≈ 37 µg/mL) | 4.3 mM (≈ 1390 µg/mL) | 51 mM (≈ 16500 µg/mL) | 13 mM (≈ 4220 µg/mL) | 25 mM (≈ 8110 µg/mL) | Cc1cc(=O)[nH]c2c1C(=O)c1c(C)cc(=O)n(CC3CC3)c1C2=O [Compound 4-37] | – | < 500 nM | – | – | – | – | – | – | – | – | – | 220 ± 10 nM | 1400 ± 200 nM | 6.1 | –

Further lines, the compound ahead of its results:

SMILES | solubility at 30 min [1] | solubility [2] | solubility [3, 8] | solubility [3, 14] | solubility [3, 15] | IC50 (MCF-7 cells; [6]) | IC50 (MCF-7 cells; [7]) | Fold Protection of MCF7 cells w/ 25 μM dicoumarol (MCF-7 cells) | NQO1 Initial Velocity @ 1 μM (NQO1) | Solubility in CH2Cl2 ([3]; CH2Cl2, Table 4.3) | Solubility in DMSO ([3]; DMSO, Table 4.3) | solubility [3, 9] | solubility [3, 10] | solubility [3, 11] | MTD at 5 days [4] | solubility [5] | IC50 (MCF-7 cells; [12]) | IC50 (MCF-7 cells; [13]) | Fold protection by DIC (MCF-7 cells; Table 4.2) | other results
CCn1c2c(c(C)cc1=O)C(=O)c1c(C)cc(=O)[nH]c1C2=O [Compound 109] | 0.319 mM (≈ 95.2 µg/mL) | 5.7 mM (≈ 1700 µg/mL) | 19 mM (≈ 5670 µg/mL) | – | – | 530 nM | < 500 nM | 4.5 | 1500 ± 100 | 9.5 mM (≈ 2830 µg/mL) | 24 mM (≈ 7160 µg/mL) | 19 mM (≈ 5670 µg/mL) | 9.5 mM (≈ 2830 µg/mL) | 24 mM (≈ 7160 µg/mL) | 10 mg/kg and 35 µmol/kg | 18 mM (≈ 5370 µg/mL) | – | – | – | IC50 (MCF-7 cells; MCF7, 2 h, Table 4.1, 2 h exposure, no DIC, ± s.e., read-out: IC50 vs. MCF-7 cells): 200 ± 10 nM; IC50 (MCF-7 cells; MCF7, read-out: IC50 vs. MCF-7 cells +25 μM DIC, Table 4.1, +25 μM DIC, ± s.e.): 3400 ± 200 nM; Fold protection by DIC (MCF-7 cells; Table 4.1): 17
Cc1cc(=O)[nH]c2c1C(=O)c1c(C)cc(=O)n(C(C)C)c1C2=O [Compound 4-30] | 0.041 mM (≈ 12.8 µg/mL) | 3.7 mM (≈ 1160 µg/mL) | 79 mM (≈ 24700 µg/mL) | 5.6 mM (≈ 1750 µg/mL) | 21 mM (≈ 6560 µg/mL) | – | < 500 nM | – | – | – | – | – | – | – | – | – | 240 ± 20 nM | 2100 ± 800 nM | 8.6 | –
Cc1cc(=O)[nH]c2c1C(=O)c1c(C)cc(=O)n(CC(C)(C)C)c1C2=O [Compound 9-253] | 0.024 mM (≈ 8.17 µg/mL) | 9.4 mM (≈ 3200 µg/mL) | 100 mM (≈ 34000 µg/mL) | – | – | 110 ± 40 nM | < 500 nM | 9 | 1700 ± 100 | 23 mM (≈ 7830 µg/mL) | 16 mM (≈ 5450 µg/mL) | 100 mM (≈ 34000 µg/mL) | 23 mM (≈ 7830 µg/mL) | 16 mM (≈ 5450 µg/mL) | ≥ 15 mg/kg and ≥ 44 µmol/kg | 20 mM (≈ 6810 µg/mL) | 230 ± 10 nM | 2100 ± 700 nM | 8.9 | –
